One data set can be described thus: in vitro. The following applies: African green monkey. The text has this:
(§1) In Vitro Antimalarial Activites Against P. falciparum and Cytotoxicity Towards Mammalian Cells (Vero Cells)

In data set [1] the target is T1, Human dihydrofolate reductase (hDHFR) (Homo sapiens, UniProt P00374).
T1 sequence (P00374 1-187): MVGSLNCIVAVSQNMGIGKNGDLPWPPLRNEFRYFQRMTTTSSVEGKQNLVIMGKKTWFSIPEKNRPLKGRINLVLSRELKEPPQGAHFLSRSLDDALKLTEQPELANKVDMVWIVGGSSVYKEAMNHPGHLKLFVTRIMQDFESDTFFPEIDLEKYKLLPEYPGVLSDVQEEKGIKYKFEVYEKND
The data set is described as follows: Inhibition of human dihydrofolate reductase (Ki). The following applies: human DHFR; hydrochloride salts. Type of data set: biochemical.

A further data set deals with wild type (WT) pfDHFR (Plasmodium falciparum, UniProt P13922, N108S/R59C). The data set is described as follows: Inhibition of wild type pfDHFR (Ki). In kind it is biochemical. How it is done:
(§2) The synthesized 2,4-diamino-6-ethylpyrimdine derivatives as the hydrochloride salts were tested for the activities against Plasmodium falciparum (P. falciparum) according to the standard methods. These include the inhibition of dihydrofolate reductase (DHFR) enzymes of P. falciparum including, wild type (WT) and quadruple mutants (N51IC59RS108NI164L) (QM). The inhibition was expressed as inhibition constants (Ki) in nano molar (nM).

The target in data set [2] is quadruple mutant N51I + C59R + S108N + I164L (QM) pfDHFR (Plasmodium falciparum, UniProt P13922, I164L/N51I). The data set is described as follows: Inhibition of quadruple mutant pfDHFR (Ki). Type of data set: biochemical. How it is done:
as §2

Data set [3] deals with P. falciparum V1/S (N51I + C59R + S108 + I164L). Description: microbe, parasite or virus in culture. In kind it is cell-based, Plasmodium falciparum. The note with it: Plasmodium falciparum, read-out: IC50 P. falciparum V1/S.
Description: as §1

Data set [4] concerns P. falciparum TM4/8.2 (wild type). The data set is described as follows: microbe, parasite or virus in culture. In kind it is cell-based, Plasmodium falciparum. The following applies: Plasmodium falciparum, read-out: IC50 P. falciparum TM4/8.2 (WT).
Description: as §1

[5] abbreviates: in vitro, quadruple mutant strain V1/S.
Where [6] appears, read: in vitro, wild-type strain TM4/8.2.

Where two headings read alike, the source gives them in different places.

Chain of wild type (WT) pfDHFR (P13922 whole entry R59C/N108S): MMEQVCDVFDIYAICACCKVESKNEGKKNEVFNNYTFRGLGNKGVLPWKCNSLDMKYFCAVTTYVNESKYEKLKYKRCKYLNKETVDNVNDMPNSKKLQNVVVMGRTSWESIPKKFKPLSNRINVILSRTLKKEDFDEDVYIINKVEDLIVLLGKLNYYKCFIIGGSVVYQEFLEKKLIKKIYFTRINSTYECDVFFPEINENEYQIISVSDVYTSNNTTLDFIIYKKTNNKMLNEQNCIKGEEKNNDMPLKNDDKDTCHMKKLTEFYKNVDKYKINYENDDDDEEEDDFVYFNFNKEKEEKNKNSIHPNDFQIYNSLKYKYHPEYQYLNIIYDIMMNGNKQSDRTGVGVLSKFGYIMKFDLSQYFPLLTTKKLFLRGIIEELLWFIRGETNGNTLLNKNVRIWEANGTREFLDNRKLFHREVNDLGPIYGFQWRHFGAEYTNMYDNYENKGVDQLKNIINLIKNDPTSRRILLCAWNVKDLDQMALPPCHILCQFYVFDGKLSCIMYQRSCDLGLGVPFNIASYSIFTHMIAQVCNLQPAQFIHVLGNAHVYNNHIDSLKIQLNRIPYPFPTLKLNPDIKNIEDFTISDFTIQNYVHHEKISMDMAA
Chain of quadruple mutant N51I + C59R + S108N + I164L (QM) pfDHFR (P13922 whole entry N51I/I164L): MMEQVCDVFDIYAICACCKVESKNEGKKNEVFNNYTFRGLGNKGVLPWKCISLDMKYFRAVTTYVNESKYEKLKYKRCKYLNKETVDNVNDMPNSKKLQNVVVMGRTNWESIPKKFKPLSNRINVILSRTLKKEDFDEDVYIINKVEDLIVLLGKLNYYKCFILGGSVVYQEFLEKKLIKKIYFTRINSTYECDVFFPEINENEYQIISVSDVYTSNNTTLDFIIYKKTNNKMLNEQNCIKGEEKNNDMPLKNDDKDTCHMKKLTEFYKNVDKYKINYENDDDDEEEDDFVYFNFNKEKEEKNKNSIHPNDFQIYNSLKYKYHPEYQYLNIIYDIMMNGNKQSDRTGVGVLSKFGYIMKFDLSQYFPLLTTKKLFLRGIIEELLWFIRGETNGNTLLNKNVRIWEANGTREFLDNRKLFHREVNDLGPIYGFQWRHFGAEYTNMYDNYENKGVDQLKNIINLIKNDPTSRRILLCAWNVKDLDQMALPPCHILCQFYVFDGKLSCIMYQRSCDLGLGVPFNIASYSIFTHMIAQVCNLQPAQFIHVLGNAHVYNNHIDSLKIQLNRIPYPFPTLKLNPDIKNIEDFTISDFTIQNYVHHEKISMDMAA

Broadly, the Ki is a dissociation constant, usually derived from enzyme kinetics or from competition with a known ligand. For `CCc1nc(N)nc(N)c1OCc1csc(-c2ccc(OCC(=O)O)cc2)n1` [Compound 73], the IC50 in the data set “in vitro” was above 50000 nM; in data set [3] (setting [5]), above 50000 nM; in data set [4] (setting [6]), 41 ± 6 nM. The results for the Ki (in data set [1]; on wild type (WT) pfDHFR; in data set [2]) were 357 ± 34.4 nM, 0.65 ± 0.14 nM and 28.9 ± 2.56 nM, respectively.
For the compound `CCc1nc(N)nc(N)c1OCc1coc(-c2cccc(OCC(=O)O)c2)n1` [Compound 54], the IC50 in “in vitro” was above 50000 nM; in data set [3] (setting [5]) it was above 50000 nM; in data set [4] (setting [6]) it was 3820 ± 210 nM. The results for the Ki (in data set [1]; on wild type (WT) pfDHFR; in data set [2]) were 540 ± 25.2 nM, 1.19 ± 0.15 nM and 261 ± 19 nM, respectively.
As for `CCc1nc(N)nc(N)c1OCc1cc(-c2cccc(C(F)(F)F)c2)no1` [Compound 37], the figures for the IC50 (in the data set “in vitro”; in data set [3] (setting [5]); in data set [4] (setting [6])) were 37100 ± 1810 nM, 20200 ± 1370 nM and 3260 ± 810 nM, respectively. Besides, the Ki in data set [1] was above 100000 nM; on wild type (WT) pfDHFR, 2.12 ± 0.18 nM; in data set [2], 106 ± 17.3 nM.
For `CCc1nc(N)nc(N)c1OCc1csc(-c2ccc(C(=O)O)cc2)n1` [Compound 75], the IC50 in “in vitro” was above 50000 nM; in data set [3] (setting [5]), above 50000 nM; in data set [4] (setting [6]) it was 2650 ± 430 nM. For the same compound, the results for the Ki (in data set [1]; on wild type (WT) pfDHFR; in data set [2]) were 301 ± 24.4 nM, 0.69 ± 0.12 nM and 39.2 ± 3.82 nM, respectively.
Turning to `CCc1nc(N)nc(N)c1-c1cn(Cc2ccc(C(=O)OC)cc2)nn1` [Compound 4], the IC50 is above 25000 nM in “in vitro”, above 25000 nM in data set [3] and 5530 ± 840 nM in data set [4]. Moreover, the results for the Ki (in data set [1]; on wild type (WT) pfDHFR; in data set [2]) were 555 ± 20.1 nM, 3.3 ± 0.36 nM and 5.2 ± 0.62 nM, respectively.
Consider `CCc1nc(N)nc(N)c1OCc1cc(-c2ccc(Cl)cc2)no1` [Compound 35], for which the IC50 is above 25000 nM in “in vitro”, 20900 ± 4080 nM in data set [3] and 2500 ± 340 nM in data set [4]. For the same compound, the figures for the Ki (in data set [1]; on wild type (WT) pfDHFR; in data set [2]) were 1170 ± 130 nM, 0.95 ± 0.02 nM and 65 ± 11.9 nM, respectively.
In the case of `CCc1nc(N)nc(N)c1OCc1coc(-c2ccc(OCC(=O)OCc3ccccc3)cc2)n1` [Compound 56], the figures for the IC50 (in “in vitro”; in data set [3] (setting [5]); in data set [4] (setting [6])) were above 100000 nM, 23300 ± 2470 nM and 580 ± 220 nM, respectively. For the same compound, the Ki is above 100000 nM in data set [1], 0.81 ± 0.07 nM on wild type (WT) pfDHFR and 46.7 ± 4.68 nM in data set [2].
As for `CCc1nc(N)nc(N)c1-c1cn(CCc2ccccc2)nn1` [Compound 7], the IC50 in the data set “in vitro” is above 50000 nM; in data set [3] it was above 50000 nM; in data set [4], 2620 ± 330 nM. The values for the Ki (in data set [1]; on wild type (WT) pfDHFR; in data set [2]) were 3220 ± 86.2 nM, 2.24 ± 0.1 nM and 70.1 ± 6.92 nM, respectively.
For `CCc1nc(N)nc(N)c1OCc1cn(-c2ccccc2)nn1` [Compound 13], the IC50 in the data set “in vitro” is above 25000 nM; in data set [3] (setting [5]), above 25000 nM; in data set [4] (setting [6]) it was 5730 ± 350 nM. The “Ki hDHFR” value in data set [1] is “High”. The figures for the Ki (on wild type (WT) pfDHFR; in data set [2]) were 3.27 ± 0.28 nM and 377 ± 20.5 nM, respectively.
Turning to `CCc1nc(N)nc(N)c1OCCc1csc(-c2ccccc2)n1` [Compound 76], the IC50 was determined as 1330 ± 460 nM in “in vitro”, 17800 ± 6800 nM in data set [3] (setting [5]) and 11 ± 2 nM in data set [4] (setting [6]). Also, the Ki was determined as 21 ± 1.24 nM in data set [1], 0.94 ± 0.16 nM on wild type (WT) pfDHFR and 7.28 ± 0.69 nM in data set [2].
As to `CCc1nc(N)nc(N)c1OCCc1cn(-c2cccc(C(=O)O)c2)nn1` [Compound 20], the IC50 in “in vitro” was above 25000 nM; in data set [3] (setting [5]), 1740 ± 510 nM; in data set [4] (setting [6]) it was 670 ± 340 nM. In addition, the Ki stood at 80.2 ± 3.28 nM in data set [1], 0.39 ± 0.06 nM on wild type (WT) pfDHFR and 1.73 ± 0.18 nM in data set [2].
As to `CCc1nc(N)nc(N)c1OCc1coc(-c2cccc([N+](=O)[O-])c2)n1` [Compound 52], the IC50 is above 50000 nM in “in vitro”, 15100 ± 1490 nM in data set [3] (setting [5]) and 2660 ± 310 nM in data set [4] (setting [6]). Further, the Ki in data set [1] is above 100000 nM; at wild type (WT) pfDHFR it was 2.63 ± 0.26 nM; in data set [2] it was 93.2 ± 25 nM.
Consider `CCc1nc(N)nc(N)c1OCc1csc(-c2cccc(C)c2)n1` [Compound 61], for which the IC50 is 31300 ± 7750 nM in “in vitro”, 18000 ± 7770 nM in data set [3] (setting [5]) and 840 ± 100 nM in data set [4] (setting [6]). In addition, the Ki in data set [1] amounted to 131.5 ± 0.88 nM; at wild type (WT) pfDHFR, 0.34 ± 0.05 nM; in data set [2], 37.7 ± 3.04 nM.
With `CCc1nc(N)nc(N)c1-c1cn(Cc2ccccc2)nn1` [Compound 3], the results for the IC50 (in the data set “in vitro”; in data set [3]; in data set [4]) were above 50000 nM, 19900 ± 7030 nM and 3570 ± 1250 nM, respectively. For the same compound, the values for the Ki (in data set [1]; at wild type (WT) pfDHFR; in data set [2]) were 3140 ± 242 nM, 11.3 ± 0.81 nM and 13.9 ± 1.98 nM, respectively.
With `CCc1nc(N)nc(N)c1OCc1cc(-c2ccc(OC)cc2)no1` [Compound 42], the IC50 is above 25000 nM in the data set “in vitro”, above 25000 nM in data set [3] (setting [5]) and 1190 ± 360 nM in data set [4] (setting [6]). In addition, the figures for the inhibition constant (Ki) (in data set [1]; on wild type (WT) pfDHFR; in data set [2]) were 1660 ± 76.7 nM, 1.15 ± 0.18 nM and 64.4 ± 7.59 nM, respectively.
For `CCc1nc(N)nc(N)c1OCc1cn(-c2ccc(C(=O)O)cc2)nn1` [Compound 19], the IC50 (in the data set “in vitro”; in data set [3] (setting [5]); in data set [4] (setting [6])) was above 10000 nM each time. In data set [1], the “Ki hDHFR” value is listed as “High”. Further, the Ki worked out at 7.79 ± 1.33 nM at wild type (WT) pfDHFR and 671 ± 27.2 nM in data set [2].
In the case of `CCc1nc(N)nc(N)c1-c1cn(CCOc2ccc(Cl)cc2)nn1` [Compound 9], the IC50 in the data set “in vitro” turned out to be 47400 ± 11600 nM; in data set [3], 15900 ± 5630 nM; in data set [4], 2240 ± 600 nM. Also, the values for the Ki (in data set [1]; on wild type (WT) pfDHFR; in data set [2]) were 1670 ± 59.5 nM, 1.14 ± 0.06 nM and 10.8 ± 1.02 nM, respectively.
For the compound `CCc1nc(N)nc(N)c1OCc1cn(-c2ccc(C(=O)OC)cc2)nn1` [Compound 18], the figures for the IC50 (in the data set “in vitro”; in data set [3] (setting [5]); in data set [4] (setting [6])) were above 50000 nM, 13600 ± 3220 nM and 10500 ± 3100 nM, respectively. Further, the “Ki hDHFR” value in data set [1] is given as “High”. Moreover, the Ki was 6.54 ± 1.25 nM at wild type (WT) pfDHFR and 833 ± 45 nM in data set [2].
As to `CCc1nc(N)nc(N)c1OCc1coc(-c2ccccc2)n1` [Compound 50], the IC50 in “in vitro” was above 50000 nM; in data set [3] (setting [5]), 13700 ± 4080 nM; in data set [4] (setting [6]), 2250 ± 710 nM. Besides, the Ki came out at 292 ± 22.2 nM in data set [1], 1.33 ± 0.07 nM on wild type (WT) pfDHFR and 55.6 ± 8.79 nM in data set [2].
`CCc1nc(N)nc(N)c1OCc1cn(Cc2ccc(O)cc2)nn1` [Compound 28]: the IC50 (in the data set “in vitro”; in data set [3] (setting [5]); in data set [4] (setting [6])) was above 1000 nM each time. For the same compound, the “Ki hDHFR” value in data set [1] was “High”. The affinity at wild type (WT) pfDHFR, expressed as Ki, was 53.7 ± 5.6 nM. Further, the “Ki pfDHFR N51I + C59R + S108N + I164L (QM)” value in data set [2] (quadruple mutant pfDHFR, hydrochloride salts) was “High”.
Consider `CCc1nc(N)nc(N)c1OCc1csc(-c2ccc(Cl)cc2)n1` [Compound 70], for which the IC50 in “in vitro” turned out to be 63500 ± 17600 nM; in data set [3] (setting [5]), 24300 ± 9370 nM; in data set [4] (setting [6]), 1180 ± 30 nM. For the same compound, the Ki in data set [1] stood at 286 ± 47.1 nM; at wild type (WT) pfDHFR, 0.74 ± 0.09 nM; in data set [2], 30.2 ± 1.59 nM.
As to `CCc1nc(N)nc(N)c1OCc1coc(-c2ccc(OCC(=O)O)cc2)n1` [Compound 57], the values for the IC50 (in “in vitro”; in data set [3] (setting [5]); in data set [4] (setting [6])) were above 50000 nM, above 50000 nM and 730 ± 170 nM, respectively. The Ki in data set [1] is 716 ± 78.3 nM; at wild type (WT) pfDHFR, 0.84 ± 0.08 nM; in data set [2] it was 78 ± 6.44 nM.
Turning to `CCc1nc(N)nc(N)c1OCCCc1cn(Cc2ccc(C(=O)O)cc2)nn1` [Compound 32], the IC50 was above 50000 nM in “in vitro”, 3750 ± 430 nM in data set [3] (setting [5]) and 87 ± 30 nM in data set [4] (setting [6]). For the same compound, the Ki in data set [1] was found to be 54.3 ± 1.05 nM; on wild type (WT) pfDHFR it was 0.36 ± 0.02 nM; in data set [2], 4.72 ± 0.77 nM.

Values taken from patent US11028072B2, “2,4-diamino-6-ethylpyrimidine derivatives with antimalarial activities against Plasmodium falciparum” (National Science and Technology Development Agency, priority 2015, dated 2021).
